Test results reported in PMC9133015 (Nature Communications, 2022).
Values joined by “and” are separate entries in the source; they are usually repeats but may differ in a detail not shown here. Identical values can stand only once. Like-named read-outs stand apart in the source and are kept apart here.

Legend:
Assay in all cases: Kinase inhibitor specificity profiling (Reaction Biology Corporation)
Format in all cases: biochemical
Set-up in all cases: % Enzyme Activity (relative to DMSO controls): concentration or dose not given beside the values
[1] = molecular target: T1, panel of 370 protein kinases (Homo sapiens, UniProt Q02779); conditions: 2 h, kinase MLK2/MAP3K10; read-out: % Enzyme Activity (relative to DMSO controls)
T1 construct: purchased Reaction Biology Corporation (assay service)

[2] = molecular target: T2, panel of 370 protein kinases (Homo sapiens, UniProt Q00534); conditions: 2 h, read-out: % Enzyme Activity (relative to DMSO controls)
T2 construct: purchased Reaction Biology Corporation (assay service)
T2 sequence (Q00534 whole entry): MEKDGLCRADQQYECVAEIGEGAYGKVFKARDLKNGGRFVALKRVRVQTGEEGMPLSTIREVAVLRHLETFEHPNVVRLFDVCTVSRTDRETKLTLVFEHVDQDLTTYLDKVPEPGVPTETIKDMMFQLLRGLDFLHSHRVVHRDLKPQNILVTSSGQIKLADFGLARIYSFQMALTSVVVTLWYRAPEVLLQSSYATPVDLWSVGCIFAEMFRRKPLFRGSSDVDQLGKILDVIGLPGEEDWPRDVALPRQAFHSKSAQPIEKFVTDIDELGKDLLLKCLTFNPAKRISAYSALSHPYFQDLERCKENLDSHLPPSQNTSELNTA

[3] = molecular target: T3, panel of 370 protein kinases (Homo sapiens, UniProt Q9UBS0); conditions: 2 h, kinase p70S6Kb/RPS6KB2; read-out: % Enzyme Activity (relative to DMSO controls)
T3 construct: purchased Reaction Biology Corporation (assay service)

[4] = molecular target: T4, panel of 370 protein kinases (Homo sapiens, UniProt Q9BYT3); conditions: 2 h, kinase STK33; read-out: % Enzyme Activity (relative to DMSO controls)
T4 construct: purchased Reaction Biology Corporation (assay service)

[5] = molecular target: T5, panel of 370 protein kinases (Homo sapiens, UniProt Q96BR1); conditions: 2 h, kinase SGK3/SGKL; read-out: % Enzyme Activity (relative to DMSO controls)
T5 construct: purchased Reaction Biology Corporation (assay service)
T5 sequence (Q96BR1 whole entry): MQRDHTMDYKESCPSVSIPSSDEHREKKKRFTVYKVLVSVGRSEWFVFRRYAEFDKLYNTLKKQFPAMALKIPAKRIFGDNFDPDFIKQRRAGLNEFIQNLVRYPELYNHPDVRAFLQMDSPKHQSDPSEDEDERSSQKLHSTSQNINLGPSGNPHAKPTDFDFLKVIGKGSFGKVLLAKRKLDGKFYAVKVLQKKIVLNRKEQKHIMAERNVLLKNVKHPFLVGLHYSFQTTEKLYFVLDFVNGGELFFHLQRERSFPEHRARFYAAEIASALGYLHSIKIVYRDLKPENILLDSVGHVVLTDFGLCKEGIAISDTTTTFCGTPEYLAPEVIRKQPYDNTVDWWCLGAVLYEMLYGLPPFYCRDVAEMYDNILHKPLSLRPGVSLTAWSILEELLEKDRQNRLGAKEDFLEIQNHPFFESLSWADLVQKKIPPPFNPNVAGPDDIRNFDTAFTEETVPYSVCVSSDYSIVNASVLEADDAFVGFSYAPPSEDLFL

[6] = molecular target: T6, panel of 370 protein kinases (Homo sapiens, UniProt P53355); conditions: 2 h, kinase DAPK1; read-out: % Enzyme Activity (relative to DMSO controls)
T6 construct: purchased Reaction Biology Corporation (assay service)

[7] = molecular target: T7, panel of 370 protein kinases (Homo sapiens, UniProt O60285); conditions: kinase ARK5/NUAK1
T7 construct: purchased Reaction Biology Corporation (assay service)
T7 sequence (O60285 whole entry): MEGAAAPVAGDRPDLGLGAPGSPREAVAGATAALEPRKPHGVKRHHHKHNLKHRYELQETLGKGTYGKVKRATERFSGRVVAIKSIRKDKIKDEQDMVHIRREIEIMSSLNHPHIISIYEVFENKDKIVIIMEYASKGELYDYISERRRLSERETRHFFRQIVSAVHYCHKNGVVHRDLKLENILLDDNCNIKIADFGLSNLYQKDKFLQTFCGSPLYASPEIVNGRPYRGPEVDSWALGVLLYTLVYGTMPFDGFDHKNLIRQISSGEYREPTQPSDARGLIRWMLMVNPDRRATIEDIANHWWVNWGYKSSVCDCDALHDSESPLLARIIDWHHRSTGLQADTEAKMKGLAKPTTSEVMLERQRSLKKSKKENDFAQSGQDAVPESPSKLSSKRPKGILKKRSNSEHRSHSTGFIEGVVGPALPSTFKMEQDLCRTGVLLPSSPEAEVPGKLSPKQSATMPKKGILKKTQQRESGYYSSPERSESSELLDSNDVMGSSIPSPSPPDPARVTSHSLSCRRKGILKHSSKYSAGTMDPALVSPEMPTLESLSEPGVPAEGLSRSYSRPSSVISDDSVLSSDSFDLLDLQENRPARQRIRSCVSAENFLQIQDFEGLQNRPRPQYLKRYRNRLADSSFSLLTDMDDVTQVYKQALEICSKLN

[8] = molecular target: T8, panel of 370 protein kinases (Homo sapiens, UniProt Q9HBY8); conditions: 2 h, kinase SGK2; read-out: % Enzyme Activity (relative to DMSO controls)
T8 construct: purchased Reaction Biology Corporation (assay service)
T8 sequence (Q9HBY8 whole entry): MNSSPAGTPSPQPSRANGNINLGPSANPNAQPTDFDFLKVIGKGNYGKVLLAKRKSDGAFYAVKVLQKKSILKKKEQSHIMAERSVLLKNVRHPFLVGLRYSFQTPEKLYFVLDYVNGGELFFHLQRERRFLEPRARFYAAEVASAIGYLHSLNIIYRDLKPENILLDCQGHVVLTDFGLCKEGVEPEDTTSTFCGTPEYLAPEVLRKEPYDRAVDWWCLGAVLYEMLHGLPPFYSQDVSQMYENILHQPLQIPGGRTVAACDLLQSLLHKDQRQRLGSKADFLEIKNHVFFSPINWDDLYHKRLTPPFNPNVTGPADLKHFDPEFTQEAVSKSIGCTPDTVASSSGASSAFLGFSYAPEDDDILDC

[9] = molecular target: T9, panel of 370 protein kinases (Homo sapiens, UniProt Q9NR20); conditions: 2 h, read-out: % Enzyme Activity (relative to DMSO controls), kinase DYRK4
T9 construct: purchased Reaction Biology Corporation (assay service)

[10] = molecular target: T10, panel of 370 protein kinases (Homo sapiens, UniProt O96013); conditions: 2 h, kinase PAK4; read-out: % Enzyme Activity (relative to DMSO controls)
T10 construct: purchased Reaction Biology Corporation (assay service)
T10 sequence (O96013 whole entry): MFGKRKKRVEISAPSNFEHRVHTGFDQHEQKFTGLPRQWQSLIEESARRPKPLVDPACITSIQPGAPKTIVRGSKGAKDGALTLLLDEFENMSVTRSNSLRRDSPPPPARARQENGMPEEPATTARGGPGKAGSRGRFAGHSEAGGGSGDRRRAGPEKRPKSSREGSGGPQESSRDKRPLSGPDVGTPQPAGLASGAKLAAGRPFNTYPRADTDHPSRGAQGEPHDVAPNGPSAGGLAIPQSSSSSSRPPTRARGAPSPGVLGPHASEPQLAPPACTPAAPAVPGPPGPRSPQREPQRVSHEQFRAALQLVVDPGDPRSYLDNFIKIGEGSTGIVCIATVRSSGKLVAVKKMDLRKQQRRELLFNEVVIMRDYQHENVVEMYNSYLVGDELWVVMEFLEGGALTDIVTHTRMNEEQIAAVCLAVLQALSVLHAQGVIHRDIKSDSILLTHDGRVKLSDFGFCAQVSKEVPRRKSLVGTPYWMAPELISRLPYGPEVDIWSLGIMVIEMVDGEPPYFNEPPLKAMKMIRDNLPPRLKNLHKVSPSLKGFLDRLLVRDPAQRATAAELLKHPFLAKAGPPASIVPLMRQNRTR

[11] = molecular target: T11, panel of 370 protein kinases (Homo sapiens, UniProt P30530); conditions: 2 h, kinase AXL; read-out: % Enzyme Activity (relative to DMSO controls)
T11 construct: purchased Reaction Biology Corporation (assay service)
T11 sequence (P30530 26-894): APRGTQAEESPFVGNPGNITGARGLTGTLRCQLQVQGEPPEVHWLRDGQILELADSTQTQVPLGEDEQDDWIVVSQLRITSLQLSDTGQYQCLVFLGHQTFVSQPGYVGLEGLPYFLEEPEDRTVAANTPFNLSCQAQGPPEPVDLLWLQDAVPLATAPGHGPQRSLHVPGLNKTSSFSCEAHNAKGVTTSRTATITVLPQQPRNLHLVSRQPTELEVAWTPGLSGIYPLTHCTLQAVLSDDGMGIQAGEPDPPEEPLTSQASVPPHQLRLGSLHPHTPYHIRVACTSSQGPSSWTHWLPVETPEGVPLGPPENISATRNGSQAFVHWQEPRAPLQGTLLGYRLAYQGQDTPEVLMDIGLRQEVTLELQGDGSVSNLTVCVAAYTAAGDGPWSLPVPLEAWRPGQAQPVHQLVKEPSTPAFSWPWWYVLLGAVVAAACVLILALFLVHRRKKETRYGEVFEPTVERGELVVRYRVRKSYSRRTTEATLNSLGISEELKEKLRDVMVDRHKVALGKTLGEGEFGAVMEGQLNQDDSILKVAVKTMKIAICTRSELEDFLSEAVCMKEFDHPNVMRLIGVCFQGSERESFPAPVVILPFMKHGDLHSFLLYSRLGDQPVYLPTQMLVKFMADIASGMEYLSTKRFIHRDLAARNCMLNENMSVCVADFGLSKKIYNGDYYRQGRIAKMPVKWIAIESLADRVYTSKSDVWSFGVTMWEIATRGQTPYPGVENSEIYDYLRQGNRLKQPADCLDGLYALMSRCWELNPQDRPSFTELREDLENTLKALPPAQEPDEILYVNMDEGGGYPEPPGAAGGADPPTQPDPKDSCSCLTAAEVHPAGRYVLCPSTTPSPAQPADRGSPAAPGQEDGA

[12] = molecular target: T12, panel of 370 protein kinases (Homo sapiens, UniProt O75914); conditions: 2 h, kinase PAK3; read-out: % Enzyme Activity (relative to DMSO controls)
T12 construct: purchased Reaction Biology Corporation (assay service)

[13] = molecular target: T13, panel of 370 protein kinases (Homo sapiens, UniProt Q06418); conditions: 2 h, kinase TYRO3/SKY; read-out: % Enzyme Activity (relative to DMSO controls)
T13 construct: purchased Reaction Biology Corporation (assay service)
T13 sequence (Q06418 41-890): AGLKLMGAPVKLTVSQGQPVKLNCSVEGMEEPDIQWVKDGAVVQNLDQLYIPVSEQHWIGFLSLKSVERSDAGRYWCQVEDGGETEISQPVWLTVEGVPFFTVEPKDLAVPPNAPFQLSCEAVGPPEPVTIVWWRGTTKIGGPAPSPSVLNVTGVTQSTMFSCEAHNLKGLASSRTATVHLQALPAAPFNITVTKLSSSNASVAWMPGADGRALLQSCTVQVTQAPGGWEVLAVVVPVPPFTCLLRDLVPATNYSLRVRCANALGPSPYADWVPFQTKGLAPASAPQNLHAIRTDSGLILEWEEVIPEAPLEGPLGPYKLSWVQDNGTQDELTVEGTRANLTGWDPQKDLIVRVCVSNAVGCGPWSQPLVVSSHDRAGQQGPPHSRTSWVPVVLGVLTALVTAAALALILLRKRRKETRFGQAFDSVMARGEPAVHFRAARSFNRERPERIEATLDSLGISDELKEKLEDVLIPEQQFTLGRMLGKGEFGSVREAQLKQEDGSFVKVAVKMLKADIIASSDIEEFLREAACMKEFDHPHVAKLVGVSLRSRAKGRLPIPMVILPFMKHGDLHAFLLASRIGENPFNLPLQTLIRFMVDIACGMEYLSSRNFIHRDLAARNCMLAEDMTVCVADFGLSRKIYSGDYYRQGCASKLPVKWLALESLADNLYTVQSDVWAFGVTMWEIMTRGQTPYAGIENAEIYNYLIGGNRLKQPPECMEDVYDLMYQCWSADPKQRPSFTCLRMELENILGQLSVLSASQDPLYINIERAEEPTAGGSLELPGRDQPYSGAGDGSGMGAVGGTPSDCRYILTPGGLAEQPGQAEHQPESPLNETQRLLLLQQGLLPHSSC

[14] = molecular target: T14, panel of 370 protein kinases (Homo sapiens, UniProt P51451); conditions: 2 h, kinase BLK; read-out: % Enzyme Activity (relative to DMSO controls)
T14 construct: purchased Reaction Biology Corporation (assay service)

[15] = molecular target: T15, panel of 370 protein kinases (Homo sapiens, UniProt Q13882); conditions: 2 h, kinase BRK; read-out: % Enzyme Activity (relative to DMSO controls)
T15 construct: purchased Reaction Biology Corporation (assay service)

[16] = molecular target: T16, panel of 370 protein kinases (Homo sapiens, UniProt Q9BXA6); conditions: 2 h, kinase SSTK/TSSK6; read-out: % Enzyme Activity (relative to DMSO controls)
T16 construct: purchased Reaction Biology Corporation (assay service)

[17] = molecular target: T17, panel of 370 protein kinases (Homo sapiens, UniProt Q8IU85); conditions: 2 h, kinase CAMK1d; read-out: % Enzyme Activity (relative to DMSO controls)
T17 construct: purchased Reaction Biology Corporation (assay service)
T17 sequence (Q8IU85 whole entry): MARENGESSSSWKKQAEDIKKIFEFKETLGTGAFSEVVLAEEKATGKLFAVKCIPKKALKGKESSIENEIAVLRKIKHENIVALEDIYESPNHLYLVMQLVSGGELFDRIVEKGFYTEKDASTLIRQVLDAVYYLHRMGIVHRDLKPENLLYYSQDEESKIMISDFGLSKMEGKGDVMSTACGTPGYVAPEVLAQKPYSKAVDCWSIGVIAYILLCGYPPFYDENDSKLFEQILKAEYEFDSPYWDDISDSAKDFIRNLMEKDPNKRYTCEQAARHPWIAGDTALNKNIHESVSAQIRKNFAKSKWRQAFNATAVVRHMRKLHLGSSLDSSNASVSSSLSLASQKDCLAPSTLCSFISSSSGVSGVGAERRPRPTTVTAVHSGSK

[18] = molecular target: T18, panel of 370 protein kinases (Homo sapiens, UniProt P04049); conditions: 2 h, kinase RAF1; read-out: % Enzyme Activity (relative to DMSO controls)
T18 construct: purchased Reaction Biology Corporation (assay service)

[19] = molecular target: T19, panel of 370 protein kinases (Homo sapiens, UniProt Q8TDC3); conditions: 2 h, kinase BRSK1; read-out: % Enzyme Activity (relative to DMSO controls)
T19 construct: purchased Reaction Biology Corporation (assay service)

[20] = molecular target: T20, panel of 370 protein kinases (Homo sapiens, UniProt P04626); conditions: 2 h, kinase ERBB2/HER2; read-out: % Enzyme Activity (relative to DMSO controls)
T20 construct: purchased Reaction Biology Corporation (assay service)

[21] = molecular target: T21, panel of 370 protein kinases (Homo sapiens, UniProt P78368); conditions: kinase CK1g2
T21 construct: purchased Reaction Biology Corporation (assay service)
T21 sequence (P78368 whole entry): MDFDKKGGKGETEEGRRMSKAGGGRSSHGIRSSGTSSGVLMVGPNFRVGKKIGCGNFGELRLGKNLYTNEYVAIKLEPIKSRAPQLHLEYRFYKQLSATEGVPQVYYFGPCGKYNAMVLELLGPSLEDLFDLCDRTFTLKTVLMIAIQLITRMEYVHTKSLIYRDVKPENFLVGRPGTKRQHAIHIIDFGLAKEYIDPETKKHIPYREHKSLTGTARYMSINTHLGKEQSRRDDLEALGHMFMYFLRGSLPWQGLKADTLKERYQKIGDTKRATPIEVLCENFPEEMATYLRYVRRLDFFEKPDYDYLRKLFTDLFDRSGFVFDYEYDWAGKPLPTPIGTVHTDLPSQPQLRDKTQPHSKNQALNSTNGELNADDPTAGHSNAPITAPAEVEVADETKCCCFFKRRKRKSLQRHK

With `CCN1CCN(C(=O)c2ccc(Nc3ncc(F)c(-c4ccc5nc(N(C)C)sc5c4)n3)nc2)CC1` [YK-2-69] the remaining activity at 1 µM [1] was 81.7%, the remaining activity at 1 µM ([2]; kinase CDK6/cyclin D1) was 8.21% and the remaining activity at 1 µM ([2]; kinase CDK6/cyclin D3) was 71.9%. The remaining activity at 1 µM [3] was 99.4%, the remaining activity at 1 µM [4] was 80.1% and the remaining activity at 1 µM [5] was 95.6%. The remaining activity at 1 µM [6] was 62.2%, the “% Enzyme Activity (relative to DMSO controls)” value [7] was 87.08% and 86.46% and the remaining activity at 1 µM [8] was 97.5%. The remaining activity at 1 µM [9] was 50%, the remaining activity at 1 µM [10] was 108% and the remaining activity at 1 µM [11] was 94.3%. For the same compound, the remaining activity at 1 µM [12] was 160%, the remaining activity at 1 µM [13] was 96.6% and the remaining activity at 1 µM [14] was 100%. The remaining activity at 1 µM [15] was 97.7%, the remaining activity at 1 µM [16] was 107% and the remaining activity at 1 µM [17] was 84.3%. For the same compound, the remaining activity at 1 µM [18] was 106%, the remaining activity at 1 µM [19] was 94% and the remaining activity at 1 µM [20] was 100%. The “% Enzyme Activity (relative to DMSO controls)” value [21] was 92.19% and 91.13%.
